Measurements from ChEMBL document CHEMBL4385632, “Synthesis of novel benzothiazole amides: Evaluation of PPAR activity and anti-proliferative effects in paraganglioma, pancreatic and colorectal cancer cell lines” (2019).
Calls of active or inactive are those of the source. The rule behind the calls is not given here.

Tests used:
HT-29 = test: Cytotoxicity against human HT-29 cells assessed as reduction in cell viability at 75 uM incubated for 72 hrs by MTT assay; type: functional; conditions: for inhibition at 75 µM: HT-29, 72 h
[1] = Inhibition of colony formation in human PTJ64i cells assessed as plating efficiency at 24 uM incubated for 13 days by crystal violet staining based assay (Rvb=10.75%); type: functional; design: scale not given: the % may be the effect or the level left
[2] = Inhibition of colony formation in human PTJ86i cells assessed as surviving fraction at 24 uM incubated for 13 days by crystal violet staining based assay (Rvb=100%); type: functional; conditions: 312 h, read-out: Survival
Homo sapiens [3] = species on record: Homo sapiens; test: Cytotoxicity against human PTJ64i cells assessed as reduction in cell viability incubated for 72 hrs by MTT assay; type: functional, cell-based
ASPC1 = test: Cytotoxicity against human AsPC1 cells assessed as reduction in cell viability at 75 uM incubated for 72 hrs by MTT assay; type: functional; conditions: for inhibition at 75 µM: ASPC1, 72 h
[4] = Inhibition of colony formation in human PTJ64i cells assessed as surviving fraction at 24 uM incubated for 13 days by crystal violet staining based assay (Rvb=100%); type: functional; conditions: 312 h, read-out: Survival
[5] = (§1) Cytotoxicity against human PTJ64i cells assessed as reduction in cell viability at 75 uM incubated for 72 hrs by MTT assay; type: functional
Capan-2 = test: Cytotoxicity against human Capan2 cells assessed as reduction in cell viability at 75 uM incubated for 72 hrs by MTT assay; type: functional; conditions: for inhibition at 75 µM: Capan-2, 72 h
[6] = (§2) Cytotoxicity against human PTJ86i cells assessed as reduction in cell viability at 75 uM incubated for 72 hrs by MTT assay; type: functional
[7] = Inhibition of colony formation in human PTJ86i cells assessed as plating efficiency at 24 uM incubated for 13 days by crystal violet staining based assay (Rvb=30.25%); type: functional; design: scale not given: the % may be the effect or the level left
Homo sapiens [8] = species on record: Homo sapiens; test: Cytotoxicity against human PTJ86i cells assessed as reduction in cell viability incubated for 72 hrs by MTT assay; type: functional, cell-based
[9] = target: T1, Peroxisome proliferator-activated receptor gamma (Homo sapiens) (UniProt P37231); test: Antagonist activity at GAL4-tagged human PPARgamma LBD expressed in human HepG2 cells assessed as inhibition of rosiglitazone-induced receptor transactivation at 25 uM incubated for 20 hrs by luciferase reporter gene assay relative to control; type: cell-based
T1 sequence (whole entry): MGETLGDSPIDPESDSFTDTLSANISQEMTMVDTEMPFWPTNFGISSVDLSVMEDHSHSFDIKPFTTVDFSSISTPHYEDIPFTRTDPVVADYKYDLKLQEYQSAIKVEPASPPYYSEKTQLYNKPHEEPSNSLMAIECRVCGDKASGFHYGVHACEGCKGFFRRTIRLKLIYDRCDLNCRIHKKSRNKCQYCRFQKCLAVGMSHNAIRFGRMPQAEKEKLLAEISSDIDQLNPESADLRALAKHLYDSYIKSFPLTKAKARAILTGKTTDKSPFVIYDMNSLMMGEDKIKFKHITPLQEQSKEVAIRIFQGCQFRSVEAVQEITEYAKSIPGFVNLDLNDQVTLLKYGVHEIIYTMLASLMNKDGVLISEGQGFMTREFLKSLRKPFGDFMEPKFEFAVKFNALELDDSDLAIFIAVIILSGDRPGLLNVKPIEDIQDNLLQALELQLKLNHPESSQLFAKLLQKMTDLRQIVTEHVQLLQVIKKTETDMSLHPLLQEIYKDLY

SW480 = test: Cytotoxicity against human SW480 cells assessed as reduction in cell viability at 75 uM incubated for 72 hrs by MTT assay; type: functional; conditions: for inhibition at 75 µM: SW480, 72 h
[10] = target: T2, Peroxisome proliferator-activated receptor delta (Homo sapiens) (UniProt Q03181); test: Antagonist activity at GAL4-tagged human PPARdelta LBD expressed in human HepG2 cells assessed as inhibition of L-165,041-induced receptor transactivation at 25 uM incubated for 20 hrs by luciferase reporter gene assay relative to control; type: cell-based
T2 sequence (whole entry): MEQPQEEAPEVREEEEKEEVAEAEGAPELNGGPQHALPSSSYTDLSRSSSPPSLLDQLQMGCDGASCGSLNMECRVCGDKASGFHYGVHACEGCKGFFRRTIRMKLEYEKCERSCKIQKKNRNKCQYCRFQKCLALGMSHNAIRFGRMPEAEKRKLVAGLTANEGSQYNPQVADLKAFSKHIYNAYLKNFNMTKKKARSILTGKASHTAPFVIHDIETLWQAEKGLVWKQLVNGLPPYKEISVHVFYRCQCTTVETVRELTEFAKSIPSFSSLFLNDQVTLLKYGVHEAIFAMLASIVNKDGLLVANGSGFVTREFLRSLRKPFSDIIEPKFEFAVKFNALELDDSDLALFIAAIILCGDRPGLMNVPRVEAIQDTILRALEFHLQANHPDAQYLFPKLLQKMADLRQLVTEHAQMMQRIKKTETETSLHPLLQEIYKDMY

[11] = target: T3, Peroxisome proliferator-activated receptor alpha (Homo sapiens) (UniProt Q07869); test: Antagonist activity at GAL4-tagged human PPARalpha LBD expressed in human HepG2 cells assessed as inhibition of Wy14,643-induced receptor transactivation at 25 uM incubated for 20 hrs by luciferase reporter gene assay relative to control; type: cell-based
T3 sequence (whole entry): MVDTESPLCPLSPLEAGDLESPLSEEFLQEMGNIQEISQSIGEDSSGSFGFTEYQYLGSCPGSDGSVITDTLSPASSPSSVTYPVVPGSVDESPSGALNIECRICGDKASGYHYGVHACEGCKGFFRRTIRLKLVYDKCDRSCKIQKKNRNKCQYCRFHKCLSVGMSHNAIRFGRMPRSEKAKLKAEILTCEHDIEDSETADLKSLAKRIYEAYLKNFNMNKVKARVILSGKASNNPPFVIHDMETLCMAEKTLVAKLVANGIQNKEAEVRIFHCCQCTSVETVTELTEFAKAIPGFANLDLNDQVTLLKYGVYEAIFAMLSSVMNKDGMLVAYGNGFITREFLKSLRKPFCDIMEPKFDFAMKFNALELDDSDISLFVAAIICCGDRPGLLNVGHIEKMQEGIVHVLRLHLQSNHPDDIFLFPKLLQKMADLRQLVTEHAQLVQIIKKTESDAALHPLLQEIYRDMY

Homo sapiens [12] = species on record: Homo sapiens; test: as §1; type: functional
Homo sapiens [13] = species on record: Homo sapiens; test: as §2; type: functional

SMILES	inhibition at 75 µM (HT-29)	inhibition at 75 µM (ASPC1)	inhibition at 75 µM [5]	inhibition at 75 µM (Capan-2)	inhibition at 75 µM [6]	%max [9]	inhibition at 75 µM (SW480)	%max [10]	%max [11]	further results
O=C(Nc1ccccc1)C(Sc1nc2cc(Cl)ccc2s1)c1ccccc1 (stereo not given)	≤ 68%	≤ 75%	> 90%	≤ 75%	> 90%	< 2%	≤ 68%	< 2%	22%	Activity [1]: 2.5%; viability at 24 µM [2]: 18.2%; inhibition (Homo sapiens [3]): Dose-dependent effect; viability at 24 µM [4]: 23.3%; Activity [7]: 5.5%; inhibition (Homo sapiens [8]): Dose-dependent effect
O=C(NCCCc1ccccc1)C(Sc1nc2cc(Cl)ccc2s1)c1ccccc1 (stereo not given)	≤ 63%	≤ 50%	≥ 50%	≤ 50%	≥ 50%	< 2%	≤ 63%	< 2%	46%	
O=C(NCCc1ccccc1)C(Sc1nc2cc(Cl)ccc2s1)c1ccccc1 (stereo not given)	≤ 50%	≤ 74%	≥ 50%	≤ 74%	≥ 50%	< 2%	≤ 50%	< 2%	57%	
CC(NC(=O)C(Sc1nc2cc(Cl)ccc2s1)c1ccccc1)c1ccccc1 (stereo not given)	≤ 50%	≤ 50%	≥ 50%	≤ 50%	≥ 50%	< 2%	60%	< 2%	45%	
CC(=O)Nc1ccc(NC(=O)C(Sc2nc3cc(Cl)ccc3s2)c2ccccc2)cc1 (stereo not given)	≤ 50%	≤ 50%	≥ 50%	≤ 50%	≥ 50%	< 2%	≤ 50%	< 2%	22%	
O=C(NCc1ccccc1)C(Sc1nc2cc(Cl)ccc2s1)c1ccccc1 (stereo not given)	≤ 50%	≤ 50%	≥ 50%	≤ 50%	≥ 50%	< 2%	≤ 50%	< 2%	35%	
CCCCNC(=O)C(Sc1nc2cc(Cl)ccc2s1)c1ccccc1 (stereo not given)	≤ 50%	≤ 50%	≥ 50%	≤ 50%	≥ 50%	< 2%	≤ 50%	< 2%	31%	
CCC(=O)NC[C@H](Cc1ccc(OCCc2nc(-c3ccccc3)oc2C)cc1)N/C(C)=C\C(=O)c1ccc(C(F)(F)F)cc1										inhibition (HT-29): Active; inhibition (ASPC1): Active; inhibition (Homo sapiens [12]): Active; inhibition (Capan-2): Active; inhibition (Homo sapiens [13]): Active; inhibition (SW480): Active
